Assay: cn = amount concentration of the nth substance listed, in mol/dm3
Conditions: 101 kPa, Liquid, Direct current cell with electrodes

CCCCCCCCCCCC[N+](CC)(CC)CC.[Br-] [dodecyltriethylammonium bromide] + O
electrical conductivity [S/m]
Conditions	303.15 K	308.15 K	313.15 K	318.15 K
c1 = 0.001316	–	0.01605	0.0176	0.019
c1 = 0.002597	–	0.0306	0.0335	0.0363
c1 = 0.003846	–	0.0443	0.0486	0.0526
c1 = 0.005063	–	0.0573	0.0631	0.0682
c1 = 0.00625	–	0.0698	0.0768	0.0831
c1 = 0.007407	–	0.0819	0.09	0.0976
c1 = 0.008536	–	0.0934	0.1028	0.1114
c1 = 0.009638	–	0.1047	0.115	0.1247
c1 = 0.01071	–	0.116	0.127	0.137
c1 = 0.01177	–	0.126	0.139	0.15
c1 = 0.01279	–	0.136	0.149	0.1607
c1 = 0.01379	–	0.1445	0.159	0.173
c1 = 0.01477	0.138	0.1513	0.167	0.1822
c1 = 0.01573	0.1426	0.156	0.1726	0.189
c1 = 0.01667	0.146	0.1607	0.178	0.196
c1 = 0.01758	0.15	0.165	0.1821	0.2
c1 = 0.01848	0.1528	0.169	0.186	0.206
c1 = 0.01936	0.156	0.1721	0.1911	0.211
c1 = 0.02021	0.159	0.175	0.195	0.215
c1 = 0.02105	0.1616	0.179	0.199	0.22
c1 = 0.02188	0.1645	0.1821	0.202	0.224
c1 = 0.02268	0.167	0.185	0.206	0.228
c1 = 0.02347	0.17	0.189	0.209	0.232
c1 = 0.02424	0.1723	0.1916	0.213	0.236
c1 = 0.025	0.175	0.1946	0.216	0.24
